These results are taken from patent US9434745B2, “7-oxo-thiazolopyridine carbonic acid derivatives and their use in the treatment, amelioration or prevention of a viral disease” (Savira Pharmaceuticals GmbH, priority 2012, dated 2016).

Series [1] concerns the target T1, influenza A virus (IAV) PA-Nter fragment (amino acids 1-209) (Influenza A virus, UniProt P31343).
T1 construct: PA-Nter fragment (amino acids 1-209); made in house
In words: FRET endonuclease activity assay. Type of series: biochemical. The conditions noted are these: for pIC50: from initial reaction velocities (v0) of RNA substrate cleavage.

Series [2] has as its system MDCK cells. In words: Cytotoxicity in uninfected treated cells (CellTiter-Glo) within the CPE assay. Format: cell-based, canine. The conditions noted are these: at 50 μM. The method, then:
After removal of the culture medium and one washing step with PBS, virus and compound were added together to the cells. In the wells used for cytotoxicity determination (i.e. in the absence of viral infection), no virus suspension was added. Instead, infection medium was added. Each treatment was conducted in two replicates. After incubation at 37° C., 5% CO2 for 48 hrs, each well was observed microscopically for apparent cytotoxicity, precipitate formation, or other notable abnormalities. Then, cell viability was determined using CellTiter-Glo luminescent cell viability assay (Promega). The supernatant was removed carefully and 65 μl of the reconstituted reagent were added to each well and incubated with gentle shaking for 15 min at room temperature. Then, 60 μl of the solution was transferred to an opaque plate and luminescence (RLU) was measured using Synergy HT plate reader (Biotek).
Relative cell viability values of uninfected-treated versus uninfected-untreated cells were used to evaluate cytotoxicity of the compounds. Substances with a relative viability below 80% at the tested concentration were regarded as cytotoxic and retested at lower concentrations.
A general note: In ATP-based viability assays light output follows the ATP content of the culture.

For series [3], the system named is influenza A virus (IAV) A/Aichi/2/68 (H3N2). In words: Cytopathic effect (CPE) assay. The conditions noted are these: MDCK cells, 48 hrs; for inhibition at 50 µM: read-out: CPE % reduction. Format: cell-based. A general note: Damage to the host cells serves as the signal in cytopathic effect assays.

pIC50: −log10 of the molar value. A value given as a limit tells only on which side of the number the result lay.

The molecule `O=C(O)c1cn(CCc2ccc(Cl)cc2)c2cc(C3CC3)nn2c1=O` gave a melting point of 220 to 225 °C.

As for `O=C(O)c1cn(CCc2ccc(C(F)(F)F)cc2)c2cc(C3CC3)nn2c1=O`, the melting point lay within 225 to 230 °C. Take `O=C(O)c1cn(CCc2cccc(Cl)c2)c2cc(C3CC3)nn2c1=O`: the melting point lay in the range of 230 to 235 °C. Regarding `O=C(O)c1cn(CCc2cccc(F)c2)c2cc(C3CC3)nn2c1=O`, the melting point is 220 to 225 °C.

The molecule `O=C(O)c1cn(CCCc2ccccc2)c2cc(C3CC3)nn2c1=O` gave a melting point of 95 to 100 °C. On the same count and under the same terms, in the case of `CC(C)c1cc2n(CCc3ccccc3)cc(C(=O)O)c(=O)n2n1` it was 220 to 225 °C. `O=C(O)c1cn(Cc2ccccc2)c2cc(C3CCCC3)nn2c1=O` registered a melting point of 213 to 215 °C. As to `O=C(O)Cc1c[nH]c2cc(C(F)(F)F)nn2c1=O`, the melting point was 320 to 324 °C. Consider `O=C(NCCc1ccc(Cl)cc1)c1cc2[nH]cc(C(=O)O)c(=O)n2n1`, for which the melting point was greater than 300 °C.

`CCOC(=O)c1c[nH]c2nc(NCc3ccccc3)nn2c1=O` had a melting point of 275 to 278 °C.

Turning to `CCOC(=O)c1c[nH]c2nc(Nc3ccc(C)c(Cl)c3)nn2c1=O`, the melting point is greater than 340 °C. The molecule `CCOC(=O)Cc1c[nH]c2nc(Nc3ccc(OC(C)C)cc3)nn2c1=O` yielded a melting point of 235 to 240 °C. With `CCOC(=O)c1c[nH]c2c(C#N)c(CCCNC)nn2c1=O`, the melting point fell in the range of 285 to 287 °C. `CCOC(=O)c1cn(Cc2ccccc2)c2cc(C3CC3)nn2c1=O` returned a melting point of 160 to 165 °C. Same read-out and setting: in the case of `CCOC(=O)c1cn(CCc2ccc(O)cc2)c2cc(C3CC3)nn2c1=O` it was 95 to 100 °C; in that of `CCOC(=O)c1cn(CCc2ccc(Cl)cc2)c2cc(C3CC3)nn2c1=O`, 190 to 195 °C; in that of `CCOC(=O)c1cn(CCc2ccc(OC)cc2)c2cc(C3CC3)nn2c1=O`, 160 to 165 °C. The same measure, in the same setting: with `CCOC(=O)c1cn(CCc2cccc(F)c2)c2cc(C3CC3)nn2c1=O` the figure was 160 to 165 °C.

The molecule `CCOC(=O)c1cn(CCc2cccc(C(F)(F)F)c2)c2cc(C3CC3)nn2c1=O` came in with a melting point of 140 to 145 °C.

The molecule `CCOC(=O)c1cn(CCCc2ccccc2)c2cc(C3CC3)nn2c1=O` returned a melting point of 150 to 155 °C. As to `CCOC(=O)c1cn(Cc2ccccc2)c2cc(C3CCCC3)nn2c1=O`, the melting point was in the range of 148 to 150 °C. Molecule `CCOC(=O)c1cn(CCc2ccccc2)c2cc(C3CCCC3)nn2c1=O` yielded a melting point of 162 to 164 °C. In turn, `CCOC(=O)Cc1c[nH]c2cc(-c3ccccc3)nn2c1=O` had a melting point of 245 to 250 °C. In the case of `CCOC(=O)Cc1cn(C)c2cc(C3CC3)nn2c1=O`, the melting point fell in the range of 147 to 150 °C.

Regarding `CCOC(=O)c1c[nH]c2cc(C(=O)NC3CCN(Cc4ccccc4)CC3)nn2c1=O`, the melting point lay within 264 to 266 °C. For the molecule `O=C(O)c1c[nH]c2nc(NCc3ccccc3)nn2c1=O`, the melting point was in the range of 240 to 245 °C.

As to `CSC1=NC2C(=O)C(C(=O)O)=CN(Cc3ccccc3-c3ccccc3)C2S1` (stereo not drawn), in series [1], the pIC50 was 4.92. In series [2], the “Cytotoxicity (relative viability below 80% regarded as cytotoxic)” value is “Toxic”. Regarding `O=C(O)c1cn(Cc2ccccc2-c2ccccc2)c2nc(NC3CCCC3)sc2c1=O`, the inhibition at 50 µM in series [3] is 70%.

In the case of `O=C(O)c1cn(Cc2ccccc2-c2ccccc2)c2nc(NCc3ccccc3)sc2c1=O`, the inhibition at 50 µM in series [3] amounted to 68%. In series [1], `O=C(O)c1cn(Cc2ccccc2-c2ccccc2)c2sc(NC3CCCC3)nc2c1=O` gave a pIC50 of 5.26. Besides, the “Cytotoxicity (relative viability below 80% regarded as cytotoxic)” value in series [2] is “toxic”. Consider `O=C(O)c1cn(Cc2ccccc2-c2ccccc2)c2sc(N3CCCCC3)nc2c1=O`, for which, in series [3], the inhibition at 50 µM came out at 83%.

As for `CNC(=O)c1cn(Cc2ccccc2-c2ccccc2)c2sc(NCc3ccccc3)nc2c1=O`, the inhibition at 50 µM in series [3] stood at 41%. On to `N#Cc1ccc(S(=O)(=O)Nc2nc3c(=O)c(C(=O)O)cn(Cc4ccccc4-c4ccccc4)c3s2)cc1`, for which the values for the pIC50 in series [1] and in series [3] were 5.66 and 4.74, respectively. With `O=C(O)c1cn(Cc2ccccc2-c2ccc(Cl)cc2)c2sc(O)nc2c1=O`, the inhibition at 50 µM in series [3] was found to be 63%. As to `COc1ccc(S(=O)(=O)Nc2nc3c(=O)c(C(=O)O)cn(Cc4ccc(Cl)cc4-c4ccccc4)c3s2)cc1`, the inhibition at 50 µM in series [3] worked out at 67%. For the molecule `CCOC(=O)c1cn(Cc2ccccc2-c2ccccc2)c2sc(SC)nc2c1=O`, the “FRET (result in words)” value in series [1] was “inactive”. Moreover, the inhibition at 50 µM in series [3] is 35%. Take `Cc1[nH]c2ncnn2c(=O)c1CC(=O)O`: the inhibition at 50 µM in series [3] was found to be 28%. On the same count and under the same terms, in the case of `Nc1cc2n(C(=O)C3(c4ccccc4)CCCC3)cc(C(=O)O)c(=O)n2n1` [drawing 237] it was 18%.

As usually defined, the melting point is the temperature, or range, at which the solid turns liquid. For orientation: pIC50 means the IC50 on a negative log10 scale, so that one unit is a factor of ten. Lower therefore signals a high IC50.
